Measured values: patent US20260130933A1, “PHARMACEUTICAL COMPOSITION FOR PREVENTION OR TREATMENT OF NEPHROPATHY AND/OR DIABETES MELLITUS, COMPRISING ENAVOGLIFLOZIN” (DAEWOONG PHARMACEUTICAL CO., LTD., priority 2022, published 2026)

Test: Example 3: phase 3 trial, enavogliflozin 0.3 mg vs dapagliflozin 10 mg once a day for 24 weeks added to metformin and gemigliptin in patients with type 2 diabetes (same endpoints, rescue drug)
Type: in vivo, human
Settings: week 6
Procedure: 1) when Metformin (≥1,000 mg/Day) was Administered at a Constant Dose for at Least 8 Weeks Prior to Pre-Visit (Pre-Screening) • Metformin (≥1,000 mg/day) and gemigliptin (50 mg/day) were co-administered during the 8-week stabilization period. […] 4) when Metformin (≥1,000 mg/Day) and Gemigliptin (50 mg/Day) were Co-Administered at Constant Doses for at Least 8 Weeks Prior to Pre-Visit (Prescreening) • Without a separate stabilization period, Pre-visit (pre-screening) was Visit 1 (screening).
Subjects who met the inclusion/exclusion criteria continued to receive metformin and gemigliptin while receiving a placebo of the clinical trial drug in a single-blind (subject-blinded) state for a 2-week run-in period.
Here, the randomized subjects were stratified according to the administration therapy (co-administration with two or less agents (one or two agents) or three or more agents) of a conventional hypoglycemic agent (before washout of another hypoglycemic agent) within 24 weeks prior to obtaining written informed consent and by an HbA1c value (<8% or ≥8%) at Visit 1 (screening) measured in the central laboratory.
The randomized subjects were administered two tablets of the clinical trial drug corresponding to each administration group once a day, and then visited the institution at weeks 6, 12, 18, and 24 during the 24-week administration period to conduct efficacy and safety assessments. In addition, during the clinical trial period, they were instructed to exercise regularly and control their diet without changing their daily life patterns.
• 1) Change in HbA1c at week 24 after administration of clinical trial drug compared to Visit 2 (randomization)
• 1) Change in HbA1c at each time point of weeks 6, 12, and 18 after administration of clinical trial drug compared to Visit 2 (randomization) • 2) Change in FPG at each time point of weeks 6, 12, 18, and 24 after administration of clinical trial drug compared to Visit 2 (randomization) • 3) Proportion of subjects achieving HbA1c<7% at each time point of weeks 6, 12, 18, and 24 after administration of clinical trial drug • 4) Proportion of subjects achieving HbA1c<6.5% at each time point of weeks 6, 12, 18, and 24 after administration of clinical trial drug • 5) Proportion of subjects achieving therapeutic response (HbA1c change (HbA1c at Visit 2—HbA1c at each evaluation time point)>0.5% or HbA1c<7% at each evaluation time point compared to Visit 2 (randomization)) at each time point of weeks 6, 12, 18, and 24 after administration of clinical trial drug • 6) Proportion of subjects achieving therapeutic response (HbA1c change (HbA1c at Visit 2—HbA1c at each evaluation time point)>0.7% or HbA1c<7% at each evaluation time point compared to Visit 2 (randomization)) at each time point of weeks 6, 12, 18, and 24 after administration of clinical trial drug • 7) Proportion of subjects achieving therapeutic response (HbA1c change (HbA1c at Visit 2—HbA1c at each evaluation time point)>1% or HbA1c<7% at each evaluation time point compared to Visit 2 (randomization)) at each time point of weeks 6, 12, 18, and 24 after administration of clinical trial drug

[1] = modified per-protocol set 2, enavogliflozin 0.3 mg, dapagliflozin 10 mg
[2] = per-protocol set, enavogliflozin 0.3 mg vs dapagliflozin 10 mg
[3] = per-protocol set, enavogliflozin 0.3 mg, dapagliflozin 10 mg

## OC[C@H]1O[C@@H](c2cc(Cc3ccc(C4CC4)cc3)c(Cl)c3c2CCO3)[C@H](O)[C@@H](O)[C@@H]1O [Enavogliflozin, (2S,3R,4R,5S,6R)-2-(7-chloro-6 (4-cyclopropylbenzyl)-2,3-dihydrobenzofuran-4-yl)-6-(hydroxymethyl)tetrahydro-2H-pyran-3,4,5-triol]
Modified per-protocol set 2
  Change from baseline in diastolic blood pressure, ANCOVA LS mean: −2.04 mmHg
  Change from baseline in diastolic blood pressure, LS mean difference (enavogliflozin − dapagliflozin): −0.16 mmHg
  Change from baseline in diastolic blood pressure, Mean: −2.76 mmHg
  Change from baseline in diastolic blood pressure, Median: −3.00 mmHg
  Diastolic blood pressure, Mean: 73.72 mmHg
  Diastolic blood pressure, Median: 74.00 mmHg
Modified per-protocol set 2, enavogliflozin 0.3 mg vs dapagliflozin 10 mg
  Change from baseline in systolic blood pressure, ANCOVA LS mean difference: 0.73 mmHg
[1]
  Change from baseline in systolic blood pressure, ANCOVA LS mean: −2.76 mmHg
  Change from baseline in systolic blood pressure, Mean: −3.67 mmHg
  Change from baseline in systolic blood pressure, Median: −3.00 mmHg
  Systolic blood pressure, Mean: 124.04 mmHg
  Systolic blood pressure, Median: 123.00 mmHg
per-protocol set
  Adiponectin, Mean: 6.20 µg/mL
  Adiponectin, Median: 5.40 µg/mL
  Change from baseline in HOMA-IR, ANCOVA LS mean: −0.94
  Change from baseline in HOMA-IR, LS mean difference (enavogliflozin − dapagliflozin): 0.05
  Change from baseline in HOMA-IR, Mean: −0.90
  Change from baseline in HOMA-IR, Median: −0.68
  Change from baseline in HOMA-β, ANCOVA LS mean: 8.13
  Change from baseline in HOMA-β, LS mean difference (enavogliflozin − dapagliflozin): 4.93
  Change from baseline in HOMA-β, Mean: 8.74
  Change from baseline in HOMA-β, Median: 4.35
  Change from baseline in UACR, ANCOVA LS mean: -8.76 g/kg
  Change from baseline in UACR, LS mean difference (enavogliflozin − dapagliflozin): 6.09 g/kg
  Change from baseline in UACR, Mean: -11.43 g/kg
  Change from baseline in UACR, Median: -0.50 g/kg
  Change from baseline in UGCR, ANCOVA LS mean: 58.10 mg/mg
  Change from baseline in UGCR, LS mean difference (enavogliflozin − dapagliflozin): 12.35 mg/mg
  Change from baseline in UGCR, Mean: 56.38 mg/mg
  Change from baseline in UGCR, Median: 54.10 mg/mg
  Change from baseline in adiponectin, ANCOVA LS mean: -0.10 µg/mL
  Change from baseline in adiponectin, LS mean difference (enavogliflozin − dapagliflozin): -0.47 µg/mL
  Change from baseline in adiponectin, Mean: -0.08 µg/mL
  Change from baseline in adiponectin, Median: 0.50 µg/mL
  Change from baseline in leptin, ANCOVA LS mean: -1.83 ng/mL
  Change from baseline in leptin, LS mean difference (enavogliflozin − dapagliflozin): 0.20 ng/mL
  Change from baseline in leptin, Mean: -1.75 ng/mL
  Change from baseline in leptin, Median: -0.94 ng/mL
  HOMA-IR (insulin resistance), Mean: 2.00
  HOMA-IR (insulin resistance), Median: 1.54
  HOMA-β (beta-cell function), Mean: 51.08
  HOMA-β (beta-cell function), Median: 38.70
  Leptin, Mean: 8.88 ng/mL
  Leptin, Median: 6.26 ng/mL
  UACR, Mean: 36.67 g/kg
  UACR, Median: 14.80 g/kg
  UGCR, Mean: 57.09 mg/mg
  UGCR, Median: 54.57 mg/mg
[2]
  Achieving HbA1c target of <6.5%, odds ratio (logistic regression model): 0.65
  Achieving HbA1c target of <7%, odds ratio (logistic regression model): 1.22
  Change from baseline in FPG, ANCOVA LS mean difference: -3.24 mg/dL
  Change from baseline in HbA1c, ANCOVA LS mean difference: −0.03 % p
  Change from baseline in body weight, ANCOVA LS mean difference: -0.13 kg
  Change from baseline in fasting C-peptide, ANCOVA LS mean difference: -0.01 ng/mL
  Therapeutic glycemic response 1, odds ratio (logistic regression model): 1.52
  Therapeutic glycemic response 2, odds ratio (logistic regression model): 1.16
  Therapeutic glycemic response 3, odds ratio (logistic regression model): 1.38
[3]
  Body weight, Mean: 67.13 kg
  Change from baseline in FPG, ANCOVA LS mean: -25.96 mg/dL
  Change from baseline in FPG, Mean: -25.72 mg/dL
  Change from baseline in FPG, Median: -24.50 mg/dL
  Change from baseline in HbA1c, ANCOVA LS mean: −0.73 % p
  Change from baseline in HbA1c, Mean: −0.74 % p
  Change from baseline in HbA1c, Median: −0.65 % p
  Change from baseline in body weight, ANCOVA LS mean: -1.92 kg
  Change from baseline in body weight, Mean: -1.87 kg
  Change from baseline in body weight, Median: -1.90 kg
  Change from baseline in fasting C-peptide, ANCOVA LS mean: -0.05 ng/mL
  Change from baseline in fasting C-peptide, Mean: -0.06 ng/mL
  Change from baseline in fasting C-peptide, Median: -0.07 ng/mL
  FPG, Mean: 114.21 mg/dL
  FPG, Median: 113.00 mg/dL
